# Assay results from patent US11524966B1 (Valo Early Discovery, Inc., priority 2017, dated 2022).
# Biological target: T1, USP28 (His-tagged USP28-FL-mammalian) (Homo sapiens, UniProt Q96RU2)
# T1 construct: Expression of USP28 (1-1077)-TEV-6*His (pTT5 vector); made in house; host or cells: Expi293f cells (pTT5 vector)
# T1 sequence (Q96RU2 1-1077): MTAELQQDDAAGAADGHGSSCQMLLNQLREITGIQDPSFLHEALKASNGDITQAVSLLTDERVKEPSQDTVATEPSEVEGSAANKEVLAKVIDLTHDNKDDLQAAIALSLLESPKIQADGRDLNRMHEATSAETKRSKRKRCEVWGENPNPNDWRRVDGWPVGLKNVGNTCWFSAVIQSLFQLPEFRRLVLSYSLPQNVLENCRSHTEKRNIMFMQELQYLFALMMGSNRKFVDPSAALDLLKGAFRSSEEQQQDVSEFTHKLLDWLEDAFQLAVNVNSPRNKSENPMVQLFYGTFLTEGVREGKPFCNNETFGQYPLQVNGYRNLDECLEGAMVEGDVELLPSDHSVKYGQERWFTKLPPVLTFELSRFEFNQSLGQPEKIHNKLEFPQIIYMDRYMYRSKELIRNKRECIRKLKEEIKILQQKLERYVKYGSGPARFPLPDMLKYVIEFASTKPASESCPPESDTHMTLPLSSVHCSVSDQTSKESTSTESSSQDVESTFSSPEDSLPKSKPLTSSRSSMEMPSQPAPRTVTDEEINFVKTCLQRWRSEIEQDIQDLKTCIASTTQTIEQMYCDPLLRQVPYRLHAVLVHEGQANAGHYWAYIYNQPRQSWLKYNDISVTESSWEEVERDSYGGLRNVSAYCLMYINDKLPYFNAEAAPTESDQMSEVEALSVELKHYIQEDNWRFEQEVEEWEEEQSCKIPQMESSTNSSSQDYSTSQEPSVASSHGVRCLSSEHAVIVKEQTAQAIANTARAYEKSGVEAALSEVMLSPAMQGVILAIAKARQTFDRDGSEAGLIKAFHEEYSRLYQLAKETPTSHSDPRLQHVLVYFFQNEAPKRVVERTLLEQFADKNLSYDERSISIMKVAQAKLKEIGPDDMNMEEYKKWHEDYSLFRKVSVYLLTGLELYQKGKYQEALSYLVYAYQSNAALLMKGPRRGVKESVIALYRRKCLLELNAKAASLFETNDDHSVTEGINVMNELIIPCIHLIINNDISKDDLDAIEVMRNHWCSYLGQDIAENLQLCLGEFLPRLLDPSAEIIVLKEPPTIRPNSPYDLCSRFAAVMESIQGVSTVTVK
# Assay: Ubiquitin-Rhodamine 110 Assay for USP28 Activity, Example A-1(a)
# Type: biochemical
# Settings: Ubiquitin-Rhodamine 110 assay, Example A-1(a); read-out: USP28 A-1(a) IC50 range
# How it was run: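 IC50 from 4-parameter logistic fit of percent inhibition versus no-enzyme and DMSO controls; compounds 25 μM to 1.3 nM, 3-fold. Ub-Rh110 cleavage (25 nM, below Km) by […] mammalian-expressed USP28-FL-His ran 45 min at room temperature, stopped with 10 mM citric acid, read ex 485/em 535.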
row,SMILES,IC50
1,"Cc1ccc2c(N)c(C(=O)N[C@H]3CCc4nc(N5CCNCC5)ccc4C3)sc2n1 (single isomer, unassigned) [Example 23-7]",1 to 50 nM
2,"Cc1ccc2c(N)c(C(=O)N[C@@H]3CCc4nc(N5CCNCC5)ccc4C3)sc2n1 (single isomer, unassigned) [Example 23-8]",50 to 200 nM
3,"Cc1ccc2c(N)c(C(=O)N[C@H]3CCc4nc(N5CCN[C@@H](C)C5)ccc4C3)sc2n1 (single isomer, unassigned) [Example 23-15]",1 to 50 nM
4,"Cc1ccc2c(N)c(C(=O)N[C@H]3CCc4nc(N5CCN[C@H](C)C5)ccc4C3)sc2n1 (single isomer, unassigned) [Example 23-16]",1 to 50 nM
5,"COC[C@@H]1CN(c2ccc3c(n2)CC[C@H](NC(=O)c2sc4nc(C)ccc4c2N)C3)C[C@@H]1N (single isomer, unassigned) [Example 24-1]",50 to 200 nM
6,"COC[C@H]1CN(c2ccc3c(n2)CC[C@H](NC(=O)c2sc4nc(C)ccc4c2N)C3)C[C@H]1N (single isomer, unassigned) [Example 24-2]",50 to 200 nM
7,"Cc1ccc2c(N)c(C(=O)N[C@H]3CCc4nc(N5CCNCC5)c(F)cc4C3)sc2n1 (single isomer, unassigned) [Example 30-1]",1 to 50 nM
8,"Cc1ccc2c(N)c(C(=O)N[C@@H]3CCc4nc(N5CCNCC5)c(F)cc4C3)sc2n1 (single isomer, unassigned) [Example 30-2]",200 to 2000 nM
9,"Cc1ccc2c(N)c(C(=O)N[C@@H]3Cc4ccc(N5CCNCC5)nc4C4(CC4)C3)sc2n1 (single isomer, unassigned) [Example 31-3, 3-amino-6-methyl-N-[(6′S)-2-(piperazin-1-yl)-6′,7′-dihydro-5′H-spiro[cyclopropane-1,8′-quinoline]-6′-yl]thieno[2,3-b]pyridine-2-carboxamide]",50 to 200 nM
10,"Cc1ccc2c(N)c(C(=O)N[C@H]3Cc4ccc(N5CCNCC5)nc4C4(CC4)C3)sc2n1 (single isomer, unassigned) [Example 31-4, 3-amino-6-methyl-N-[(6′R)-2′-(piperazin-1-yl)-6′,7′-dihydro-5′H-spiro[cyclopropane-1,8′-quinoline]-6′-yl]thieno[2,3-b]pyridine-2-carboxamide]",1 to 50 nM
11,"Cc1ccc2c(N)c(C(=O)N[C@H]3COc4cc(N5C[C@@H]6CCNC[C@@H]65)ccc4C3)sc2n1 (single isomer, unassigned) [Example 33-3]",1 to 50 nM
12,"Cc1ccc2c(N)c(C(=O)N[C@H]3COc4cc(N5C[C@H]6CCNC[C@H]65)ccc4C3)sc2n1 (single isomer, unassigned) [Example 33-4]",1 to 50 nM
13,"Cc1cnc2c(N)c(C(=O)N[C@H]3COc4cc(N5CC6CCC(C5)N6)c(F)cc4C3)sc2n1 (single isomer, unassigned) [Example 40]",1 to 50 nM
14,"Cc1cnc2c(N)c(C(=O)N[C@@H]3COc4cc(N5CC6CCC(C5)N6)c(F)cc4C3)sc2n1 (single isomer, unassigned) [Example 41]",200 to 2000 nM
15,Cc1nc2sc(C(=O)N[C@H]3CCc4nc(N5CCNCC5)ccc4C3)c(N)c2s1 [Example 23-9],50 to 200 nM
16,"Cc1ccc2c(N)c(C(=O)N[C@H]3CCc4nc(N5CC6CC(C5)N6)ccc4C3)sc2n1 [Example 23-10, 3-amino-N-[(6S)-2-{3,6-diazabicyclo[3.1.1]heptan-3-yl}-5,6,7,8-tetrahydroquinolin-6-yl]-6-methylthieno[2,3-b]pyridine-2-carboxamide]",200 to 2000 nM
17,"Cc1cnc2c(N)c(C(=O)N[C@H]3CCc4nc(N5CC6CC(C5)N6)ccc4C3)sc2n1 [Example 23-11, 7-amino-N-[(6S)-2-{3,6-diazabicyclo[3.1.1]heptan-3-yl}-5,6,7,8-tetrahydroquinolin-6-yl]-3-methylthieno[2,3-b]pyrazine-6-carboxamide]",200 to 2000 nM
18,"Cc1ccc2c(N)c(C(=O)N[C@H]3CCc4nc(N5CC6CCC(C5)N6)ccc4C3)sc2n1 [Example 23-12, 3-amino-N-[(6S)-2-{3,8-diazabicyclo[3.2.1]octan-3-yl}-5,6,7,8-tetrahydroquinolin-6-yl]-6-methylthieno[2,3-b]pyridine-2-carboxamide]",1 to 50 nM
19,"Cc1cnc2c(N)c(C(=O)N[C@H]3CCc4nc(N5CC6CCC(C5)N6)ccc4C3)sc2n1 [Example 23-13, 7-amino-N-{(6S)-2-{3,8-diazabicyclo[3.2.1]octan-3-yl}-5,6,7,8-tetrahydroquinolin-6-yl]-3-methylthieno[2,3-b]pyrazine-6-carboxamide]",1 to 50 nM
20,"Cc1cc(C)c2c(N)c(C(=O)N[C@H]3CCc4nc(N5CCNCC5)ccc4C3)sc2n1 [Example 23-14, 3-amino-4,6-dimethyl-N-[(6S)-2-(piperazin-1-yl)-5,6,7,8-tetrahydroquinolin-6-yl]thieno[2,3-b]pyridine-2-carboxamide]",1 to 50 nM
21,"Cc1ccc2c(N)c(C(=O)N[C@H]3CCc4nc(N5CCNCC5)cc(F)c4C3)sc2n1 [Example 23-17, 3-amino-N-[(6S)-4-fluoro-2-(piperazin-1-yl)-5,6,7,8-tetrahydroquinolin-6-yl]-6-methylthieno[2,3-b]pyridine-2-carboxamide]",1 to 50 nM
22,"Cc1ccc2c(N)c(C(=O)N[C@H]3CCc4nc(N5CC6CCC(C5)N6)cc(F)c4C3)sc2n1 [Example 23-18, N-((6S)-2-(3,8-diazabicyclo[3.2.1]octan-3-yl)-4-fluoro-5,6,7,8-tetrahydroquinolin-6-yl)-3-amino-6-methylthieno[2,3-b]pyridine-2-carboxamide]",1 to 50 nM
23,"Cc1ccc2c(N)c(C(=O)N[C@H]3CCc4nc(N5C[C@@H](N)[C@H](C(F)F)C5)ccc4C3)sc2n1 [Example 25, 3-Amino-N-[(6S)-2-[(3S,4R)-3-amino-4-(difluoromethyl)pyrrolidin-1-yl]-5,6,7,8-tetrahydroquinolin-6-yl]-6-methylthieno[2,3-b]pyridine-2-carboxamide]",50 to 200 nM
24,"Cc1ccc2c(N)c(C(=O)N[C@H]3COc4cc(C5(C#N)CCS(=O)(=O)CC5)ccc4C3)sc2n1 [Example 34, 3-amino-N-[(3R)-7-(4-cyano-1,1-dioxo-1λ6-thian-4-yl)-3,4-dihydro-2H-1-benzopyran-3-yl]-6-methylthieno[2,3-b]pyridine-2-carboxamide]",1 to 50 nM
25,"Cc1ccc2c(N)c(C(=O)N[C@H]3COc4c(F)c(N5CCNCC5)c(F)c(F)c4C3)sc2n1 [Example 35, 3-amino-6-methyl-N-[(3R)-5,6,8-trifluoro-7-(piperazin-1-yl)-3,4-dihydro-2H-1-benzopyran-3-yl]thieno[2,3-b]pyridine-2-carboxamide]",1 to 50 nM
26,"CCc1cnc2sc(C(=O)N[C@H]3COc4cc(N5CCNCC5)ccc4C3)c(N)c2n1 [Example 36, (R)-7-amino-2-ethyl-N-(7-(piperazin-1-yl)chroman-3-yl)thieno[2,3-b]pyrazine-6-carboxamide]",200 to 2000 nM
27,"CCc1cnc2sc(C(=O)N[C@@H]3COc4cc(N5CCNCC5)ccc4C3)c(N)c2n1 [Example 37, (S)-7-amino-2-ethyl-N-(7-(piperazin-1-yl)chroman-3-yl)thieno[2,3-b]pyrazine-6-carboxamide]",> 2000 nM
28,"O=C(N[C@H]1COc2cc(N3CCNCC3)ccc2C1)c1cnc2c(ccn2C(F)F)c1 [Example 38, (R)-1-(difluoromethyl)-N-(7-(piperazin-1-yl)chroman-3-yl)-1H-pyrrolo[2,3-b]pyridine-5-carboxamide]",200 to 2000 nM
29,"O=C(N[C@@H]1COc2cc(N3CCNCC3)ccc2C1)c1cnc2c(ccn2C(F)F)c1 [Example 39, (S)-1-(difluoromethyl)-N-(7-(piperazin-1-yl)chroman-3-yl)-1H-pyrrolo[2,3-b]pyridine-5-carboxamide]",> 2000 nM
30,"Cc1ccc2c(N)c(C(=O)N[C@H]3COc4cc(N5C[C@H]6CNC[C@@H]6C5)ccc4C3)sc2n1 [Example 43, 3-amino-N-((R)-7-((3aR,6aR)-hexahydropyrrolo[3,4-c]pyrrol-2(1H)-yl)chroman-3-yl)-6-methylthieno[2,3-b]pyridine-2-carboxamide]",200 to 2000 nM
